{
  "source": "paper PMC7819857",
  "about": "“Identification of Inhibitors of Integrin Cytoplasmic Domain Interactions With Syk” (Frontiers in Immunology, 2021)",
  "key": {"[1]": {"target": "T1, integrin β2 cytoplasmic domain : GST-Syk(6-370) (Homo sapiens, UniProt P43405)", "T1 construct": "made in house; host or cells: E. coli BL21(DE3)", "assay": "AlphaScreen of integrin β2 cytoplasmic domain binding to Syk", "details": "read-out: antagonist activity against β2 (value without measure name), AlphaScreen", "procedure": "The following HTS assay was developed to identify antagonists of the interaction between the integrin β3 cytoplasmic domain and the non-receptor tyrosine kinase Syk. […] ( Figure 1E ). Background signals in this assay were determined by omitting the integrin β3 peptide. Specific assay conditions are described in Table 1 . […] Then, either dimethyl sulfoxide control or compound was added, followed by biotinylated β3 peptide, and avidin-coated AlphaScreen donor beads. After a 4-h incubation period at room temperature (while protected from light), assays plates were read on an Infinite M1000 (Tecan) multiplate reader (Ex. 680/30; Em. 570/100).\nFigure 4 Ceftazidime inhibition of integrin signaling. (A) Dose-response curves comparing ceftazidime antagonist activity against integrin β1A, β2, and β3 cytoplasmic domains binding to Syk as measured in AlphaScreen assays. […] Data are expressed as mean fluorescence (Fl520) ± the range from duplicate determinations. One of three experiments is shown. (B) Flow cytometric analysis of integrin α4β1, β2 subunit, αVβ3, and FcγRI (CD64) on THP-1 cells. Isotype control staining is shown as light gray histograms. Specific integrin staining is shown as darker gray histograms. […] One representative blot is shown (top), along with quantification of three separate experiments normalized to maximum Syk phosphorylation (bottom). Results are expressed as the mean ± SEM."}, "[2]": {"target": "T2, pITAM : Syk tandem SH2 domains (GST-Syk(6-370)) (Homo sapiens, UniProt P43405)", "T2 construct": "made in house; host or cells: E. coli BL21(DE3)", "assay": "pITAM-Syk AlphaScreen", "details": "read-out: IC50, inhibition of pITAM-Syk binding", "source_text": "(§1) Figure 6 Selective inhibition of integrin signaling by ceftazidime. (A) Schematic illustration of the pITAM-Syk AlphaScreen used to test antagonist selectivity. (B) Comparison between ceftazidime (Ctaz) and pITAM peptide inhibition of pITAM-Syk binding in the AlphaScreen assay described in (A). […] Data are expressed as mean ± range from duplicate determinations. One of four representative assays is shown. (C) Effect of ceftazidime on Syk kinase activity. Ceftazidime (Ctaz) or Syk inhibitor P505-15 was used at 100 uM. Kinase activity is expressed as percent of maximum signal. Data are expressed as mean ± SEM (n = 3). **p < 0.01 (D) Selective effects of ceftazidime on integrin signaling. […] Phosphorylation of Syk (left and right panel) and Pyk-2 (center panel) was analyzed by immunoprecipitation and western blot. […] Quantification is shown below (left panel, n = 5; center panel, n = 3; right panel, n = 3), normalized to phosphorylation in suspension. Results are expressed as the mean ± SEM. […] Expression of interleukin (IL)-1β and monocyte chemoattractant protein (MCP)-1 genes was examined by quantitative real-time polymerase chain reaction. Data are expressed as expression levels relative to control cells kept in suspension. […] P-values were calculated by the Student t test. […]"}, "[3]": {"target": "T3, full-length Syk (Homo sapiens, UniProt P43405)", "T3 construct": "ceftazidime had no effect on the catalytic function of full-length Syk", "assay": "Syk kinase activity assay", "assay_type": "biochemical", "details": "100 uM, 100-fold higher than the AlphaScreen IC50", "source_text": "as §1"}, "[4]": {"tested_on": "IL-1β gene expression in THP-1 cells", "assay": "Quantitative PCR of adhesion-dependent IL-1β expression in THP-1 cells", "assay_type": "cell-based, human", "details": "100 µM loaded cells, plated on CS-1, 4 h, qPCR", "procedure": "THP-1 cells (2 × 10^6 per treatment group) that were glycerol loaded with ceftazidime (100 µM) or vehicle control (as described above) were plated on CS-1 peptide (10 µg/ml; 6-well plates) in serum-free RPMI-1640. Control cells were also kept in suspension. Plated and suspension cells were incubated for 4 h at 37°C. After incubation, the medium was removed, and RNA was isolated from cells with a Qiagen RNA extraction kit. After cDNA synthesis, quantitative real-time PCR was used to determine the relative gene expression levels of IL-1β and monocyte chemoattractant protein (MCP)-1 in THP-1 cells adhered to CS-1 in the presence of vehicle or ceftazidime relative to that of cells in suspension. The cycle threshold (Ct) results generated were analyzed according to the comparative Ct method (2^-ΔΔCt), where ΔCt is the difference between the CT value of target versus GAPDH control, and ΔΔCt is the difference between the ΔCt values of a given treated adherent cell sample and that of cells in suspension. Statistical differences between the two treatment groups for each target were determined by a two-tailed, unpaired Student t test using GraphPad Prism 7.04 statistical software.\nFigure 6 Selective inhibition of integrin signaling by ceftazidime. […] Data are expressed as mean ± range from duplicate determinations. […] Kinase activity is expressed as percent of maximum signal. […]"}},
  "data": [
    {"compound": "CC(C)(O/N=C(\\C(=O)N[C@@H]1C(=O)N2C(C(=O)[O-])=C(C[n+]3ccccc3)CS[C@H]12)c1csc(N)n1)C(=O)O", "note": "[ceftazidime]", "values": [
      {"measurement": "IC50", "setting": "[1]", "value": "1530 ± 210", "unit": "nM"},
      {"measurement": "IC50", "setting": "[2]", "value": "> 300000", "unit": "nM"},
      {"measurement": "effect on the catalytic function of full-length Syk", "setting": "[3]", "value": "no effect"},
      {"measurement": "adhesion-dependent induction of the expression of IL-1β", "setting": "[4]", "value": "significantly inhibited"}
    ]}
  ]
}
